Measurements published in publication PMC8793334, “Validation of a System xc^– Functional Assay in Cultured Astrocytes and Nervous Tissue Samples” (Frontiers in Cellular Neuroscience, 2022).

Assays:
Type in all cases: cell-based
[1] = biological target: T1, xCT (system xc–, cystine-glutamate exchanger) (Rattus norvegicus, UniProt A0A8I6AB70); test: radiolabeled substrate uptake in Na+-free buffer, transfected versus non-transfected CHO cells
T1 construct: gene Slc7a11; with 4F2hc (Slc3a2)

[2] = biological target: T2, xCT (system xc–, cystine-glutamate exchanger) (Mus musculus, UniProt Q9WTR6); test: radiolabeled substrate uptake in Na+-free buffer, knockout control
T2 construct: gene Slc7a11; native exchanger in cultured astrocytes and spinal cord crude synaptosomes, wild-type versus xCT–/–; with 4F2hc (Slc3a2)
T2 sequence (Q9WTR6 1-502): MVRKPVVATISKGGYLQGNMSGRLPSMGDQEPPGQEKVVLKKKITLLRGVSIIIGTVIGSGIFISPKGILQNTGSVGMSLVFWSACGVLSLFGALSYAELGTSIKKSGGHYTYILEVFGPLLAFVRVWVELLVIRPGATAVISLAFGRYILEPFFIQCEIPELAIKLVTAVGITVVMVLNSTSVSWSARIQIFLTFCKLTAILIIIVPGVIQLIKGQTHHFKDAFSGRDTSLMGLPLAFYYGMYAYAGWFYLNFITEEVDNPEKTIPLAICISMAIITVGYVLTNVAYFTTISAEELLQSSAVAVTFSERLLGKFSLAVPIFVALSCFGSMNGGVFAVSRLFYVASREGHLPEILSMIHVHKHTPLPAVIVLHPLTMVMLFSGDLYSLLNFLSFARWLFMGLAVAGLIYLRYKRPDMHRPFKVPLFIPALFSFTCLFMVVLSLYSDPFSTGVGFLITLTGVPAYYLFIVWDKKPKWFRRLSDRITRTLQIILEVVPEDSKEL
T2 sequence (P10852 1-526 partner): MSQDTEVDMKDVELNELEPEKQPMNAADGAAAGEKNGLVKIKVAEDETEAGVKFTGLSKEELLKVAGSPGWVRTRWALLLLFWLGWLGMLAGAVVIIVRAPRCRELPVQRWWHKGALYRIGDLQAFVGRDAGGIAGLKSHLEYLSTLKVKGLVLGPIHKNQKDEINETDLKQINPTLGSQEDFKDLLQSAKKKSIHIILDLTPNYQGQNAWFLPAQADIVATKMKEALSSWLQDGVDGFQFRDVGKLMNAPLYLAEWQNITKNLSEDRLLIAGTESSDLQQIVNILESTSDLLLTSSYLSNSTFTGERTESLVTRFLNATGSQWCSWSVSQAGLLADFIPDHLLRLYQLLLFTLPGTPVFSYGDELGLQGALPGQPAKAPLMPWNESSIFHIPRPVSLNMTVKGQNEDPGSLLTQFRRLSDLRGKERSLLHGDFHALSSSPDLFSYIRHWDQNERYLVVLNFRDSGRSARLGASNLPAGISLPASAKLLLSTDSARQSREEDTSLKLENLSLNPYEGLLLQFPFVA

[3] = biological target: T1, xCT (system xc–, cystine-glutamate exchanger); test: inhibition of [3H]-L-glutamate uptake in Na+-free buffer, CHO-xCT cells, concentration-response

T1 sequence (A0A8I6AB70 1-502): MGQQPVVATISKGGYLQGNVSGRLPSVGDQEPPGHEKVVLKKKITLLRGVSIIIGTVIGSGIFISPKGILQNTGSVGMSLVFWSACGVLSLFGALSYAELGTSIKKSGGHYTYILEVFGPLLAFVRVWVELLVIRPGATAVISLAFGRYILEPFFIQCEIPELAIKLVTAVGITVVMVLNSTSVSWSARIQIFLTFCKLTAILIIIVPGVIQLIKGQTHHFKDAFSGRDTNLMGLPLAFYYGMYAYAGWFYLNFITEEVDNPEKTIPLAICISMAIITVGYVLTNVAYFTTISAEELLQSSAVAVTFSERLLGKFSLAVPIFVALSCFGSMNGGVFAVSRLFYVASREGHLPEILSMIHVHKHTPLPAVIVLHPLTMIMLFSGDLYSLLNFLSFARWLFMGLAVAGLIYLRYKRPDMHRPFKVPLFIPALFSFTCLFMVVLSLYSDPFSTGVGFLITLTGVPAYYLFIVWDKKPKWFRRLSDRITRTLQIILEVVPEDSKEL

| IC50 [3] [µM] | Compound | radiolabeled substrate uptake in Na+-free buffer, transfected versus non-transfe [1] | radiolabeled substrate uptake in Na+-free buffer, knockout control [2] |
| --- | --- | --- | --- |
|  | N[C@@H](CCC(=O)O)C(=O)O [L-glutamate] | [^3H]-L-glutamate uptake measured in the transfected cells was significantly higher as compared to non-transfected cells | the uptake of [^3H]-L-glutamate was barely detectable in astrocytes derived from the transgenic mice lacking xCT |
| 5.75 | N[C@@H](CCS(=O)(=O)O)C(=O)O [HCA] |  |  |
